Consider 3 compounds from PubChem BioAssay AID588673 (Johns Hopkins Ion Channel Center, 2011).

The structures appear in SMILES notation. The source made the active and inactive calls.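 How the source made its calls: active means raises KCNQ1 potassium channel current at one or more doses and a concentration response curve can be fitted; inactive means no activation at any dose, or no fittable curve.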

The experiment addresses Potassium voltage-gated channel subfamily KQT member 1 (Homo sapiens) (UniProt P51787). The experiment in a line: KCNQ1 potassium current enhancement – automated patch clamp, CHO cells, SAR follow-up (AID 588673).

Sequence of Potassium voltage-gated channel subfamily KQT member 1 (Homo sapiens) (P51787 whole entry, looked up): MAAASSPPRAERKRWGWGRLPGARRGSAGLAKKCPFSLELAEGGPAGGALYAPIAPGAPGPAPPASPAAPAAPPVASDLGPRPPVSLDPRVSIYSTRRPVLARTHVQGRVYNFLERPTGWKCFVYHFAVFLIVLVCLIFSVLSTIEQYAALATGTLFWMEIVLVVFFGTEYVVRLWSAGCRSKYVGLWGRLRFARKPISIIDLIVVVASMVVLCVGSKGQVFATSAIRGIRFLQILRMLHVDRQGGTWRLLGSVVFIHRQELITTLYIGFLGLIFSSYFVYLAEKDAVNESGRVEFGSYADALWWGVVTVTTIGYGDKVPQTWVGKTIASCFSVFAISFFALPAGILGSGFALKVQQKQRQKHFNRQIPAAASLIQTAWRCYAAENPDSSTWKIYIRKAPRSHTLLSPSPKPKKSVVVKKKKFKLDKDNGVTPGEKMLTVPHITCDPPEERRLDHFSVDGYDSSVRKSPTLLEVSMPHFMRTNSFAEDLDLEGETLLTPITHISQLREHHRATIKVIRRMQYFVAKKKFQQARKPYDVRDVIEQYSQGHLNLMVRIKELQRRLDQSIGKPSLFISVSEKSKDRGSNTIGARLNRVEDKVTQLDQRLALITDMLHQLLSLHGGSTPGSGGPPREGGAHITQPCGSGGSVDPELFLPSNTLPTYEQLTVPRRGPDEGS

Turning to `COc1ccc(-c2csc(NC(=O)[C@@H]3CCCCN3S(=O)(=O)c3ccccc3)n2)cc1`, the “current activation, percent increase” value (at 30 µM (top of the series)) was “inactive”.

For `COc1ccc(-c2csc(NC(=O)C3CCCCN3S(=O)(=O)c3ccccc3)n2)cc1` (stereo not drawn), the IC50, inhibition of current was 1660 nM.

On to `COc1ccc(-c2csc(NC(=O)[C@H]3CCCCN3S(=O)(=O)c3ccccc3)n2)cc1`, for which the IC50, inhibition of current was 1390 nM.
